Source: patent publication US20240336608A1, “IL4I1 INHIBITORS AND METHODS OF USE” (Merck Sharp & Dohme LLC, priority 2023, published 2024)

Molecular target: T1, recombinant IL4I1 (Homo sapiens, UniProt Q96RQ9)
T1 construct: purchased R&D Systems 5684-AO-020
T1 sequence (Q96RQ9 22-567): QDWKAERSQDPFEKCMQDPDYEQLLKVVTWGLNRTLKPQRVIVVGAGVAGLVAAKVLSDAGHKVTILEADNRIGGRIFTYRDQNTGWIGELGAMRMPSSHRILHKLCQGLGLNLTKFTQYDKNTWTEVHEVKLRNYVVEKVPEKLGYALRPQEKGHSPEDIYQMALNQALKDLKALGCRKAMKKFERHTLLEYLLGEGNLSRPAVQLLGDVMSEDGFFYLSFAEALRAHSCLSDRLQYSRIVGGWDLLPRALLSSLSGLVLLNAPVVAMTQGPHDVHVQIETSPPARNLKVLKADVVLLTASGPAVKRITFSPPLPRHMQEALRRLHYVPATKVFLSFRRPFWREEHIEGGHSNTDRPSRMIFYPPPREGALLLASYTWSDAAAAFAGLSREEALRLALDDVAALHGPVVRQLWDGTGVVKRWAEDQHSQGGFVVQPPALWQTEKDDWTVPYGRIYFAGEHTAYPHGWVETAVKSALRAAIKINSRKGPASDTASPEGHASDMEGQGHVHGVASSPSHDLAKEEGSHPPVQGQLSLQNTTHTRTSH
Test: IL4I1 Enzymatic Assay (Amplex Red/HRP coupled detection of H2O2, fluorescence)
Assay type: biochemical
Details: 1 nM recombinant IL4I1; four-hour pre-incubation with compound; 1 mM each Phe, Tyr, Trp; ten-point titration
In short: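 Recombinant IL4I1 (1 nM final) pre-incubated 4 h at ambient temperature with compound (0.5% DMSO) in 50 mM Hepes pH 7.0, 0.005% Tween20; reaction started with 1 mM each Phe/Tyr/Trp plus excess Amplex Red/HRP, run 120 min. H2O2 read as resorufin fluorescence; EC50 from 10-point four-parameter fit.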

| EC50 [nM] | Compound |
| --- | --- |
| 79 | Cn1cc(C(=O)NCc2nnc(-c3cncs3)s2)nn1 [Example 297, 1-methyl-N-((5-(thiazol-5-yl)-1,3,4-thiadiazol-2-yl)methyl)-1H-1,2,3-triazole-4-carboxamide] |
| 16 | COC1CC(n2cc(C(=O)NCc3nnc(-c4ccccc4)s3)nn2)C1 (stereo not drawn) [Example 174, 1-(3-methoxycyclobutyl)-N-((5-phenyl-1,3,4-thiadiazol-2-yl)methyl)-1H-1,2,3-triazole-4-carboxamide] |
| 727 | Cc1ccc(-n2cc(C(=O)NCc3nnc(-c4ccc(F)cc4Cl)s3)nn2)c(C)n1 [Example 111, N-((5-(2-chloro-4-fluorophenyl)-1,3,4-thiadiazol-2-yl)methyl)-1-(2,6-dimethylpyridin-3-yl)-1H-1,2,3-triazole-4-carboxamide] |
| 49 | O=C(NCc1nnc(-c2ccccc2)s1)c1cn(Cc2ccno2)nn1 [Example 154, 1-(isoxazol-5-ylmethyl)-N-((5-phenyl-1,3,4-thiadiazol-2-yl)methyl)-1H-1,2,3-triazole-4-carboxamide] |
| 17 | O=C(NCc1nnc(-c2ccccc2)s1)c1cn([C@@H]2COC[C@@H]2F)nn1 [Example 198, 1-((3R,4R)-4-fluorotetrahydrofuran-3-yl)-N-((5-phenyl-1,3,4-thiadiazol-2-yl)methyl)-1H-1,2,3-triazole-4-carboxamide] |
| 651 | Cc1ccc(-n2cc(C(=O)NCc3nnc(-c4cc(F)ccc4F)s3)nn2)c(C)n1 [Example 108, N-((5-(2,5-difluorophenyl)-1,3,4-thiadiazol-2-yl)methyl)-1-(2,6-dimethylpyridin-3-yl)-1H-1,2,3-triazole-4-carboxamide] |
| 36 | Cc1ccc(-n2cc(C(=O)NCc3nnc(-c4ccc(O)cc4)s3)nn2)c(C)n1 [Example 115, 1-(2,6-dimethylpyridin-3-yl)-N-((5-(4-hydroxyphenyl)-1,3,4-thiadiazol-2-yl)methyl)-1H-1,2,3-triazole-4-carboxamide] |
| 4 | CC(C)n1cc(C(=O)NCc2nnc(-c3ccccc3)s2)nn1 [Example 304, 1-isopropyl-N-((5-phenyl-1,3,4-thiadiazol-2-yl)methyl)-1H-1,2,3-triazole-4-carboxamide] |
| 28 | N#CC1(n2cc(C(=O)NCc3nnc(-c4ccccc4)s3)nn2)CCOC1 (stereo not drawn) [Example 197, 1-(3-cyanotetrahydrofuran-3-yl)-N-((5-phenyl-1,3,4-thiadiazol-2-yl)methyl)-1H-1,2,3-triazole-4-carboxamide] |
| 274 | C[C@H](O)[C@H](CO)n1cc(C(=O)NCc2nnc(-c3ccccc3)s2)nn1 [Example 186, 1-((2S,3S)-1,3-dihydroxybutan-2-yl)-N-((5-phenyl-1,3,4-thiadiazol-2-yl)methyl)-1H-1,2,3-triazole-4-carboxamide] |
| 197 | CC(C)c1cc(C(=O)NCc2nnc(-c3ccccc3)s2)n[nH]1 [Example 2, 5-isopropyl-N-[(5-phenyl-1,3,4-thiadiazol-2-yl)methyl]-1H-pyrazole-3-carboxamide] |
| 26 | CC(NC(=O)c1cn(C)nn1)c1nnc(-c2ccccc2)s1 (single isomer, unassigned) [Example 259, 1-methyl-N-(1-(5-phenyl-1,3,4-thiadiazol-2-yl)ethyl)-1H-1,2,3-triazole-4-carboxamide] |
| 14 | CC(NC(=O)c1cn(CC(F)F)nn1)c1ccc(-c2ccccc2)nn1 (single isomer, unassigned) [Example 349, 1-(2,2-difluoroethyl)-N-(1-(6-phenylpyridazin-3-yl)ethyl)-1H-1,2,3-triazole-4-carboxamide] |
| 9 | CC(C#N)n1cc(C(=O)NCc2nnc(-c3ccccc3)s2)nn1 (stereo not drawn) [Example 73, 1-(1-cyanoethyl)-N-((5-phenyl-1,3,4-thiadiazol-2-yl)methyl)-1H-1,2,3-triazole-4-carboxamide] |
| 12 | CC(C)(C(N)=O)n1cc(C(=O)NCc2nnc(-c3ccccc3)s2)nn1 [Example 312, 1-(1-amino-2-methyl-1-oxopropan-2-yl)-N-((5-phenyl-1,3,4-thiadiazol-2-yl)methyl)-1H-1,2,3-triazole-4-carboxamide] |
| 166 | C[C@@H]1C[C@H]1n1cc(C(=O)NCc2nnc(-c3ccccc3)s2)nn1 [Example 134, 1-((1R,2R)-2-methylcyclopropyl)-N-((5-phenyl-1,3,4-thiadiazol-2-yl)methyl)-1H-1,2,3-triazole-4-carboxamide] |
| 109 | O=C(NCc1nnc(-c2ccccc2)s1)c1cn([C@@H]2CCC[C@H]2O)nn1 [Example 210, 1-((1R,2R)-2-hydroxycyclopentyl)-N-((5-phenyl-1,3,4-thiadiazol-2-yl)methyl)-1H-1,2,3-triazole-4-carboxamide] |
| 130 | O=C(NCc1nnc(-c2ccccc2)s1)c1cn([C@@H]2CO[C@H]3[C@@H]2OC[C@H]3O)nn1 [Example 30, 1-((3R,3aR,6R,6aR)-6-hydroxyhexahydrofuro[3,2-b]furan-3-yl)-N-((5-phenyl-1,3,4-thiadiazol-2-yl)methyl)-1H-1,2,3-triazole-4-carboxamide] |
| 552 | COCc1ccc(C(=O)NCc2nnc(-c3ccccc3)s2)o1 [Example 45, 5-(methoxymethyl)-N-[(5-phenyl-1,3,4-thiadiazol-2-yl)methyl]furan-2-carboxamide] |
| 53 | Cc1ccc(-n2cc(C(=O)NCc3nnc(-c4ccccc4)s3)nn2)c(C#N)n1 [Example 337, 1-(2-cyano-6-methylpyridin-3-yl)-N-((5-phenyl-1,3,4-thiadiazol-2-yl)methyl)-1H-1,2,3-triazole-4-carboxamide] |
| 8 | O=C(NCc1nnc(-c2ccccc2)s1)c1cc(C2CC2)on1 [Example 35, 5-cyclopropyl-N-[(5-phenyl-1,3,4-thiadiazol-2-yl)methyl]isoxazole-3-carboxamide] |
| 11 | O=C(NCc1nnc(-c2ccccc2)s1)c1cn(C2CCC(O)C2)nn1 (stereo not drawn) [Example 196, 1-(3-hydroxycyclopentyl)-N-((5-phenyl-1,3,4-thiadiazol-2-yl)methyl)-1H-1,2,3-triazole-4-carboxamide] |
| 33 | C[C@H]1OCC[C@H]1Cn1cc(C(=O)NCc2nnc(-c3ccccc3)s2)nn1 [Example 205, 1-(((2R,3S)-2-methyltetrahydrofuran-3-yl)methyl)-N-((5-phenyl-1,3,4-thiadiazol-2-yl)methyl)-1H-1,2,3-triazole-4-carboxamide] |
| 5 | O=C(NCc1nnc(-c2ccccc2)s1)c1cn([C@H]2C[C@@H](O)C2)nn1 [Example 282] |
| 17 | O=C(NCc1nnc(-c2ccccc2)s1)c1cn(C2CCC2)nn1 [Example 68, 1-cyclobutyl-N-((5-phenyl-1,3,4-thiadiazol-2-yl)methyl)-1H-1,2,3-triazole-4-carboxamide] |
| 170 | O=C(NCc1nnc(-c2ccccc2)s1)c1cn(C2(CO)CC2)nn1 [Example 159, 1-(1-(hydroxymethyl)cyclopropyl)-N-((5-phenyl-1,3,4-thiadiazol-2-yl)methyl)-1H-1,2,3-triazole-4-carboxamide] |
| 511 | Cc1ccc(-n2cc(C(=O)NCc3cc(-c4nccs4)on3)nn2)c(C)n1 [Example 273, 1-(2,6-dimethylpyridin-3-yl)-N-((5-(thiazol-2-yl)isoxazol-3-yl)methyl)-1H-1,2,3-triazole-4-carboxamide] |
